The molecules below were run on Collagen translation (assay: Tissue selectivity of collagen translation modulator (FIG. 3)). Conditions: not given.
Assay type: cell-based
Description: Primary human pulmonary fibroblasts (HPF, PromoCell C-12360) were maintained in fibroblast growth medium 2 (PromoCell C-23020) according to manufacture instruction. Collagen synthesis was inducted using the same cocktail as for the WI-38 cells.
Primary human dermal fibroblasts (HDF) (PromoCell C-12302) were maintained in PromoCell's proprietary Fibroblast Growth Medium 2 (ready-to-use, Cat. C-23020). For collagen synthesis induction, cells were seeded on experimental plates for 24 hours followed by addition of collagen induction cocktail. Tested compounds were added together with induction.

**Q.** How did the tissue selectivity turn out when `O=C(Nc1nc(-c2ccccc2Cl)cs1)c1ccc(N2CCOCC2)cc1` [compound 327, N-[4-(2-chlorophenyl)thiazol-2-yl]-4-morpholino-benzamide] was run?
**A.** tissue selective

These molecules were tested on Collagen type-I (assay: Collagen type-I immunofluorescence and Col-I mRNA FISH in WI-38 Human Lung Fibroblasts (FIG. 4)). Conditions: 96 hours incubation (immunofluorescence), 24 hours incubation (FISH of Col-I mRNA).
Assay type: cell-based
Description: FIG. 4A: WI-38 Human Lung Fibroblasts, 96 hours incubation with compounds. White: Collagen type-I; Gray: DAPI. Immunofluorescence. FIG. 4B: WI-38 Human Lung Fibroblasts, 24 hours incubation with compounds. FISH analysis. White: Col-I mRNA; Gray: DAPI.
Cells in 96-well or 384-well plates were fixed for 20 min in 4% paraformaldehyde (PFA, ENCO, Cat. sc-281692). Following two washes with 1×PBS, cells were treated with hydrogen peroxide (Acros, Cat: 7722-84-1) for 10 minutes and then washed twice with 1×PBS. Cells were then incubated over-night at 4° C. with Anti-Collagen I (Sigma-Aldrich, Cat: C 2456) antibody and washed three times with 1×PBS. […]
Cell images were taken with Operetta (Perkin Elmer, USA), a wide-field fluorescence microscope at 20× magnification. […] In Columbus, cells were identified by their nucleus, using the “Find Nuceli” module and cytoplasm was detected based on the secondary antibody channel. […]
Following RNA FISH experiments, images of cells were taken with Operetta (Perkin Elmer, USA), a wide-field fluorescence microscope at 20× magnification. […] In Columbus, cells were identified by their nucleus, using the “Find Nuceli” module, cytoplasm was detected based on the FISH-channel, and single mRNAs in the cytoplasm and transcription sites in the nucleus were detected using “Find Spots” module. […]

**Q.** `O=C(Nc1nc(-c2ccccc2Cl)cs1)c1ccc(N2CCOCC2)cc1` [compound 327, N-[4-(2-chlorophenyl)thiazol-2-yl]-4-morpholino-benzamide] was tested. Which “level of action on collagen synthesis” value did it give?
**A.** act at the level of translation

The molecules below were run on collagen 1 (COL1) (assay: WI-38 collagen 1 inhibition assay). Conditions: Cellular EC50, WI-38 cells; values are classes of LogEC50.
Assay type: cell-based, human
Summary of the method: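 WI-38 fibroblasts serum-starved (0.25% FBS 2 h, then none 24 h), then given a collagen induction cocktail together with compound. Cells fixed, immunostained for collagen I with DAPI counterstain, and imaged at 20×; per-cell fluorescence quantified by image analysis.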

**Q.** Which “COL1 Efficacy (LogEC50)” value does the source give for `O=C(Nc1nc(-c2ccccc2Cl)cs1)c1ccc(N2CCOCC2)cc1` [compound 327, N-[4-(2-chlorophenyl)thiazol-2-yl]-4-morpholino-benzamide] here?
**A.** +++ (+++: <−6)

**Q.** With `CNC1CCN(c2ccc(C(=O)Nc3nc(-c4ccccc4Cl)cs3)nc2)CC1` [compound 476] as the molecule, how does the “COL1 Efficacy (LogEC50)” value read?
**A.** − (−: inactive)

**Q.** `O=C(Nc1nc(-c2ccccc2Cl)cs1)c1ccc(N2CCCC(O)C2)cn1` (stereo not drawn) [compound 477, N-(4-(2-chlorophenyl)thiazol-2-yl)-5-(3-hydroxypiperidin-1-yl)picolinamide] was tested. Which “COL1 Efficacy (LogEC50)” value did it give?
**A.** +++ (+++: <−6)

**Q.** For `O=C(Nc1nc(-c2ccccc2Cl)cs1)c1ccc(N2CCC(CCO)CC2)cn1` [compound 478, N-(4-(2-chlorophenyl)thiazol-2-yl)-5-(4-(2-hydroxyethyl)piperidin-1-yl)picolinamide], which “COL1 Efficacy (LogEC50)” value is on record?
**A.** +++ (+++: <−6)

**Q.** For `O=C(Nc1nc(-c2ccccc2Cl)cs1)c1ccc(N2CCC(CO)CC2)cn1` [compound 479, N-(4-(2-chlorophenyl)thiazol-2-yl)-5-(4-(hydroxymethyl)piperidin-1-yl)picolinamide], which “COL1 Efficacy (LogEC50)” value is on record?
**A.** +++ (+++: <−6)

**Q.** With `CC(=O)NCc1ccccc1-c1csc(NC(=O)c2ccc(N3CCN(S(C)(=O)=O)CC3)cn2)n1` [compound 480] as the molecule, how does the “COL1 Efficacy (LogEC50)” value read?
**A.** − (−: inactive)

**Q.** With `O=C(Nc1nc(-c2ccccc2Cl)cs1)c1ccc(N2CCCC2)cn1` [compound 481, N-(4-(2-chlorophenyl)thiazol-2-yl)-5-(pyrrolidin-1-yl)picolinamide] as the molecule, how does the “COL1 Efficacy (LogEC50)” value read?
**A.** +++ (+++: <−6)

**Q.** For `C#CCCC1(CCN2CCN(c3ccc(C(=O)Nc4nc(-c5ccccc5Cl)cs4)cc3)CC2)N=N1` [compound 484, 4-(4-(2-(3-(but-3-yn-1-yl)-3H-diazirin-3-yl)ethyl)piperazin-1-yl)-N-(4-(2-chlorophenyl)thiazol-2-yl)benzamide hemiformate], which “COL1 Efficacy (LogEC50)” value is on record?
**A.** +++ (+++: <−6)

**Q.** With `O=C(Nc1nc(-c2ccccc2Cl)cs1)c1ccc(N2CCC[C@@H](O)C2)cn1` [compound 487, (R)—N-(4-(2-chlorophenyl)thiazol-2-yl)-5-(3-hydroxypiperidin-1-yl)picolinamide] as the molecule, how does the “COL1 Efficacy (LogEC50)” value read?
**A.** +++ (+++: <−6)

**Q.** For `O=C(Nc1nc(-c2ccccc2Cl)cs1)c1ccc(N2CCC[C@H](O)C2)cn1` [compound 488, (S)—N-(4-(2-chlorophenyl)thiazol-2-yl)-5-(3-hydroxypiperidin-1-yl)picolinamide], which “COL1 Efficacy (LogEC50)” value is on record?
**A.** +++ (+++: <−6)

— patent publication US20230212131A1, “COLLAGEN 1 TRANSLATION INHIBITORS AND METHODS OF USE THEREOF” (Anima Biotech Inc., priority 2020, published 2023)
